From PubChem BioAssay AID1259407 (Chemical Carcinogenesis Research Information System (CCRIS), 2018)
Calls of active or inactive are those of the source. The rule behind the calls is not given here.

Tested on: CCRIS mutagenicity, Ames/micronucleus/aberration tests
Assay: CCRIS mutagenicity studies

SMILES: Cc1ccc(N)cc1N
- mutagenic call (End Point: IN VITRO CHROMOSOMAL ABERRATIONS, Test System: CHL CELLS, Metabolic Activation: NONE): active; positive (structural changes)
- mutagenic call (End Point: IN VITRO CHROMOSOMAL ABERRATIONS, Test System: CHL CELLS, Metabolic Activation: RAT, LIVER, S-9, SODIUM PHENOBARBITAL AND 5,6-BENZOFLAVONE): active; positive (structural changes)
- mutagenic call (End Point: IN VITRO CHROMOSOMAL ABERRATIONS, Test System: CHO-LB CELLS, Metabolic Activation: NONE): active; positive
- mutagenic call (End Point: IN VITRO CHROMOSOMAL ABERRATIONS, Test System: CHO-LB CELLS, Metabolic Activation: RAT, LIVER, S-9, AROCLOR 1254): active; positive
- mutagenic call (End Point: IN VITRO CHROMOSOMAL ABERRATIONS, Test System: CHO-WBL CELLS, Metabolic Activation: NONE): active; positive
- mutagenic call (End Point: IN VITRO MICRONUCLEUS, Test System: HUMAN HEPATOMA HEP G2 CELLS, Metabolic Activation: NONE): active; positive
- mutagenic call (Test System: AMES SALMONELLA TYPHIMURIUM, Strain/Indicator: TA97, Metabolic Activation: RAT, LIVER, S-9, AROCLOR 1254 (4 OR 10%), Method: STANDARD PLATE): inactive; negative
- mutagenic call (Test System: AMES SALMONELLA TYPHIMURIUM, Strain/Indicator: TA98(1,8-DNP6), Metabolic Activation: PLANT CELLS, Method: PREINCUBATION): inactive; negative
- mutagenic call (Test System: AMES SALMONELLA TYPHIMURIUM, Strain/Indicator: TA98(1,8-DNP6), Metabolic Activation: RAT, LIVER, S-9, AROCLOR 1254, Method: STANDARD PLATE): inactive; negative
- mutagenic call (Test System: AMES SALMONELLA TYPHIMURIUM, Strain/Indicator: TA98(PYG219), Metabolic Activation: RAT, LIVER, S-9, AROCLOR 1254, Method: STANDARD PLATE): active; positive
- mutagenic call (Test System: AMES SALMONELLA TYPHIMURIUM, Strain/Indicator: TA98, Metabolic Activation: MOUSE, LIVER, S-9, PHENOBARBITONE AND BETA-NAPHTHOFLAVONE, Method: STANDARD PLATE): active; positive
- mutagenic call (Test System: AMES SALMONELLA TYPHIMURIUM, Strain/Indicator: TA98, Metabolic Activation: NONE, Method: MICROSUSPENSION): inactive; negative
- mutagenic call (Test System: AMES SALMONELLA TYPHIMURIUM, Strain/Indicator: TA98, Metabolic Activation: NONE, Method: SUSPENSION/PLATE): inactive; negative
- mutagenic call (Test System: AMES SALMONELLA TYPHIMURIUM, Strain/Indicator: TA98, Metabolic Activation: PLANT CELLS, Method: PREINCUBATION): inactive; negative
- mutagenic call (Test System: AMES SALMONELLA TYPHIMURIUM, Strain/Indicator: TA98, Metabolic Activation: RAT LIVER CYTOSOL, AROCLOR 1254, Method: PREINCUBATION): inactive; negative
- mutagenic call (Test System: AMES SALMONELLA TYPHIMURIUM, Strain/Indicator: TA98, Metabolic Activation: RAT LIVER MICROSOMES, AROCLOR 1254, Method: PREINCUBATION): active; positive
- mutagenic call (Test System: AMES SALMONELLA TYPHIMURIUM, Strain/Indicator: TA98, Metabolic Activation: RAT LIVER S-9, AROCLOR 1254, Method: MICROSUSPENSION): active; positive
- mutagenic call (Test System: AMES SALMONELLA TYPHIMURIUM, Strain/Indicator: TA98, Metabolic Activation: RAT LIVER S-9, PHENOBARBITAL AND BETA-NAPHTHOFLAVONE, Method: PREINCUBATION): active; positive
- mutagenic call (Test System: AMES SALMONELLA TYPHIMURIUM, Strain/Indicator: TA98, Metabolic Activation: RAT, LIVER, HEPATOCYTES, AROCLOR 1254, Method: STANDARD PLATE): active; positive
- mutagenic call (Test System: AMES SALMONELLA TYPHIMURIUM, Strain/Indicator: TA98, Metabolic Activation: RAT, LIVER, MICROSOMES, AROCLOR 1254, Method: PREINCUBATION): active; positive
- mutagenic call (Test System: AMES SALMONELLA TYPHIMURIUM, Strain/Indicator: TA98, Metabolic Activation: RAT, LIVER, MICROSOMES, BENZO[A]PYRENE, Method: PREINCUBATION): active; positive
- mutagenic call (Test System: AMES SALMONELLA TYPHIMURIUM, Strain/Indicator: TA98, Metabolic Activation: RAT, LIVER, MICROSOMES, CLOFIBRATE, Method: PREINCUBATION): inactive; negative
- mutagenic call (Test System: AMES SALMONELLA TYPHIMURIUM, Strain/Indicator: TA98, Metabolic Activation: RAT, LIVER, MICROSOMES, DEXAMETHASONE, Method: PREINCUBATION): inactive; negative
- mutagenic call (Test System: AMES SALMONELLA TYPHIMURIUM, Strain/Indicator: TA98, Metabolic Activation: RAT, LIVER, MICROSOMES, DIAMINOTOLUENE, Method: PREINCUBATION): active; positive
- mutagenic call (Test System: AMES SALMONELLA TYPHIMURIUM, Strain/Indicator: TA98, Metabolic Activation: RAT, LIVER, MICROSOMES, ISONIAZID, Method: PREINCUBATION): inactive; negative
- mutagenic call (Test System: AMES SALMONELLA TYPHIMURIUM, Strain/Indicator: TA98, Metabolic Activation: RAT, LIVER, MICROSOMES, PHENOBARBITAL, Method: PREINCUBATION): inactive; negative
- mutagenic call (Test System: AMES SALMONELLA TYPHIMURIUM, Strain/Indicator: TA98, Metabolic Activation: RAT, LIVER, MICROSOMES, Method: PREINCUBATION): inactive; negative
- mutagenic call (Test System: AMES SALMONELLA TYPHIMURIUM, Strain/Indicator: TA98, Metabolic Activation: RAT, LIVER, S-9, AROCLOR 1254, Method: STANDARD PLATE): active; positive
